Results on three molecules are retold here after BindingDB's records for doi:10.1021/acs.jmedchem.7b00441 (University of Bonn, 2017).

The structures appear in SMILES notation. pEC50: −log10 of the molar value.

By pEC50 is commonly meant the negative decadic logarithm of the EC50, by convention in mol/L.

Series [1] is described as follows: Inhibition of human GFP-fused ABCG2 expressed in MDCK2 cells assessed as potentiation of SN-38 induced cytotoxicity by measuring cell viability after 72 hrs by MTT assay. A general note: Tetrazolium dyes change colour on reduction, which living cells bring about.
Series [2] can be described thus: Inhibition of human GFP-fused ABCG2 expressed in MDCK2 cells assessed as potentiation of mitoxantrone induced cytotoxicity by measuring cell viability after 72 hrs by MTT assay.

Regarding `Cc1cc(Nc2ccc(O)c([N+](=O)[O-])c2)nc(-c2ccccc2)n1`, the pEC50 in series [1] was 7.21; in series [2], 7.66.

Take `O=[N+]([O-])c1ccc(Nc2nc(-c3cccnc3)nc3ccccc23)cc1`: the pEC50 in series [1] is 7.68; in series [2], 7.89.

Consider `N#Cc1cccc(Nc2nc(-c3cccnc3)nc3ccccc23)c1`, for which, in series [1], the pEC50 is 7.07.
